Experimental findings from patent US6121323A, “Bishydroxyureas” (3M Innovative Properties Company, priority 1997, dated 2000) are described below.

This assay concerns Leukotriene C4 production in mouse peritoneal macrophages. Put plainly: In vitro mouse peritoneal macrophage Leukotriene C4 inhibition. The assay is classed as cell-based. Conditions: zymosan stimulated, read-out: Percent Inhibition. Here is the method: IN VITRO MOUSE PERITONEAL MACROPHAGE LEUKOTRIENE C4 INHIBITION
The test described below measures the ability of compounds to inhibit the production of Leukotriene C4 in mouse peritoneal macrophages.
Mice (female, CD-1, weighing 25 g) are euthanized by exposure to carbon dioxide. The pertoneal cavity is exposed by peeling back the abdominal skin. A 5 mL portion of media (M199 containing 1% fetal bovine serum, 100 units/mL of penicillin, 100 μg/mL streptomycin, 20 units/mL of heparin and no glutamine) is injected into the exposed peritoneal cavity of each mouse. The lavage fluid is removed and pooled to yield proximately 1×10^6 macrophages/mL. A 2 mL portion of lavage fluid is added to each well of a 24 well sterile multidish and the marcophages are allowed to adhere to the plate for 2 hours at 37° C. in a 5% carbon dioxide atmosphere. The media is removed and each well is washed with 2 mL of phosphate buffered saline (PBS). A 1 mL portion of media, without heparin, but containing 5 μCi/mL of 3H-myoinositol is added to each well and the plates are incubated overnight at 37° C. in a 5% carbon dioxide atmosphere. The media is removed and the cells are washed twice with 2 mL portions of PBS. A 1 mL portion of Puck's saline formulation A containing 1 mM calcium chloride, 1 mM magnesium chloride and 10 mM lithium chloride is added to each well. (The Puck's formulation is made first as a 10× solution which contains 4 g of potassium chloride, 80 g of sodium chloride and 10 g of glucose per liter. The Puck's saline formulation A is made using 10 mL of the 10× Puck's formulation, 0.47 mL of 7.5% sodium bicarbonate and 2 mL of 1M N-2-hydroxyethylpiperazine-N'-2-ethanesulfonic acid per 100 mL.)
Compounds are dissolved in dimethyl sulfoxide. Compounds are tested at concentrations of 10, 1 and 0.1 μM. Each concentration is tested in duplicate.
A 1 μL portion of compound solution or vehicle (DMSO) is added to each well and the plates are incubated for 15 minutes at 37° C. in a 5% carbon dioxide atmosphere. Zymosan is then added to provide a final concentration of 50 μg/mL in each well and the plate is incubated for 1 to 2 hours at 37° C. in a 5% carbon dioxide atmosphere.
Following incubation 200 μL portions of media are transferred to 12×75 mm tubes. The tubes are either assayed immediately or stored at -20° C. until they can be assayed.
The media is assayed for the presence of Leukotriene C4 by radioimmunoassay which is performed according to the manufacturer's instructions (Advanced Magnetics; Cambridge, Mass.). Inhibition of LTC4 production is calculated as the ratio of the amount of LTC4 formed in the presence (LTC4 +cpd) and absence (LTC4 no cpd)of compound according to the equation below. [formula] IC50 values (concentration of compound producing a 50% inhibition of LTC4 production) are calculated by linear regression analysis of percentage inhibition versus log compound concentration plots.

The structures appear in SMILES notation.

`CCc1cc(Cc2cc(CC)c(NC(=O)N(C)O)c(CC)c2)cc(CC)c1NC(=O)N(C)O` [Example 4, 4,4'-Methylenebis(1-hydroxy-1-methyl-3-(2,6-diethylphenyl)urea)]: the inhibition (in general, the change of the read-out against control, counted positive when it falls) at 0.1 µM was -24%; the inhibition at 1 µM worked out at 6%; the inhibition at 10 µM came out at 67%.
Taken in the same sequence, the figures for `CN(O)C(=O)Nc1ccc(C(c2ccc(NC(=O)N(C)O)cc2)(C(F)(F)F)C(F)(F)F)cc1` [Example 5, 4,4'-(2,2-Hexafluoropropane)bis(1-hydroxy-1-methyl-3-phenylurea)] were 91%, 100% and 100%.
Taken in the same sequence, the figures for `CN(O)C(=O)Nc1ccc(Oc2ccc(NC(=O)N(C)O)cc2)cc1` [Example 6, 4,4'-Oxybis(1-hydroxy-1-methyl-3-phenylurea)] were 48%, 99% and 99%.
Taken in the same sequence, the figures for `CN(O)C(=O)Nc1cccc(NC(=O)N(C)O)c1` [Example 7, 1,1'-(m-Phenylene)bis(3-hydroxy-3-methylurea)] were -19%, 7% and 98%.
As to `CN(O)C(=O)Nc1cccc2c(NC(=O)N(C)O)cccc12` [Example 8, 1,1'-(1,5-Naphthalene)bis(3-hydroxy-3-methylurea)], the inhibition at 0.1 µM came out at 55%, the inhibition at 1 µM amounted to 76% and the inhibition at 10 µM came to 91%.
Taken in the same sequence, the figures for `CN(O)C(=O)N[C@H]1CC[C@H](NC(=O)N(C)O)CC1` [Example 9, trans-1,4-Cyclohexanebis(3-hydroxy-3-methylurea)] were 1%, 1% and -6%.
On to `O=C(NCCCCCCNC(=O)N(O)Cc1ccccc1)N(O)Cc1ccccc1` [Example 10, 1,1'-Hexamethylenebis(3-hydroxy-3-benzylurea)], for which the inhibition at 0.1 µM worked out at 7%, the inhibition at 1 µM stood at 94% and the inhibition at 10 µM was found to be 94%.
`COc1cc(-c2ccc(NC(=O)N(C)O)c(OC)c2)ccc1NC(=O)N(C)O` [Example 11]: the inhibition at 0.1 µM is 42%, the inhibition at 1 µM came out at 100% and the inhibition at 10 µM turned out to be 99%.
